From patent US20070191335A1, “Heterocylic antiviral compounds” (priority 2006, published 2007) come the findings set out here.

Counter-ions that a name gives are not always drawn.

T1 sequence (P51681 whole entry): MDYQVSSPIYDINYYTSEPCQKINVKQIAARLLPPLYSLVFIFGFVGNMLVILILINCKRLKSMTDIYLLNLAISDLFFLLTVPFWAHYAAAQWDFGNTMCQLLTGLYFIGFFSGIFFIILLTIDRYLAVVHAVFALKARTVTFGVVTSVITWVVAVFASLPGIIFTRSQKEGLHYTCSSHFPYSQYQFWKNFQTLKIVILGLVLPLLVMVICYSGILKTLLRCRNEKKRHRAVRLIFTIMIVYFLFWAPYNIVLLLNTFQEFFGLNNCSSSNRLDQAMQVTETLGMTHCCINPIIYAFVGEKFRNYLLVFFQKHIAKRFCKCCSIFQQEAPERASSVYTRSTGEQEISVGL

System in the first data set: not given
Assay: not given
Conditions: not given
As for `CCOC(=O)Cn1c(C)c(C(=O)N2CC3CN(CCCN(C(=O)C4CCN(C(C)=O)CC4)c4ccc(C)c(Cl)c4)CC3C2)c(C)cc1=O` (stereo not drawn) [III-1, [5-(5-{3-[(1-Acetyl-piperidine-4-carbonyl)-(3-chloro-4-methyl-phenyl)-amino]-propyl}-hexahydro-pyrrolo[3,4-c]pyrrole-2-carbonyl)-4,6-dimethyl-2-oxo-2H-pyridin-1-yl]-acetic acid ethyl ester], the melting point (in general, the temperature, or range, at which the solid turns liquid) lay in the range of 88.2 to 89.1 °C.

The next data set concerns the target T1, CCR5 (Homo sapiens, UniProt P51681).
T1 construct: host or cells: CEM-NKr-CCR5-Luc
Description: CCR5-Mediated CCF Assay. The format is cell-based. The settings on record: Hela-R5 cells (gp160) co-cultured 24 hrs with CEM-NKr-CCR5-Luc cells, luciferase readout. The procedure:
CCF assay was performed as described before (C. Ji, J. Zhang, N. Cammack and S. Sankuratri 2006 J. Biomol. Screen. in press). Hela-R5 cells (express gp160 from R5-tropic virus and HIV-1 T at) were plated in 384 well white culture plates (BD Bioscience, Palo Alto, Calif.) at 7.5×10^3 cells per well in phenol red-free Dulbecco's Modified Eagle Medium (DMEM) supplemented with 10% FBS, 1× Pen-Strep, 300 μg/ml G418, 100 μg/ml hygromycin, and 1 μg/ml doxycycline (Dox) (BD Bioscience, Palo Alto, Calif.), using Multimek (Beckman, Fullerton, Calif.) and incubated at 37° C. overnight to induce the expression of gp160. Ten μl diluted compounds in medium containing 5% DMSO were added to the cells, followed by the addition of CEM-NKr-CCR5-Luc (obtained from NIH AIDS Research & Reference Reagents Program) that expresses CD4 and CCR5 and carries a HIV-2 long terminal repeat (LTR)-driven luciferase reporter gene at 1.5×10^4 cells/15 μl/well and incubated for 24 hrs. At the end of co-culture, 15 μl of Steady-Glo luciferase substrate was added into each well, and the cultures were sealed and gently shaken for 45 min. The luciferase activity were measured for 10 sec per well as luminescence by using 16-channel TopCount NXT (PerkinElmer, Shelton, Conn.) with 10 min dark adaptation and the readout is count per second (CPS). For the drug interaction experiments, small molecule compounds or antibodies were serially diluted in serum-free and phenol red-free RPMI containing 5% dimethyl sulfoxide (DMSO) (CalBiochem, La Jolla, Calif.) and 1× Pen-Strep. Five μl each of the two diluted compound or mAb to be tested for drug-drug interactions were added to the Hela-R5 cells right before the addition of target cells.
For `Cc1nc(Oc2cccc(C(=O)O)c2)nc(C)c1C(=O)N1CC2CN(CC[C@H](NC(=O)C3CCCC3)c3ccccc3)CC2C1` (stereo partly drawn) [Compound I-10, 3-(5-{5-[(S)-3-(cyclopentanecarbonyl-amino)-3-phenyl-propyl]-hexahydro-pyrrolo[3,4-c]pyrrole-2-carbonyl}-4,6-dimethyl-pyrimidin-2-yloxy)-benzoic acid, trifluoro acetic acid salt], the IC50 (commonly the midpoint of a concentration-inhibition curve) came to 1.1 nM. In other words, the single-digit nanomolar range.
As to `CCOC(=O)c1cccc(Oc2nc(C)c(C(=O)N3CC4CN(CC[C@H](NC(=O)C5CCCC5)c5ccccc5)CC4C3)c(C)n2)c1` (stereo partly drawn) [Compound I-9, 3-(5-{5-[(S)-3-(Cyclopentanecarbonyl-amino)-3-phenyl-propyl]-hexahydro-pyrrolo[3,4-c]pyrrole-2-carbonyl}-4,6-dimethyl-pyrimidin-2-yloxy)-benzoic acid ethyl ester], the IC50 is < 0.3 nM.
As for `COC(=O)[C@@H](Oc1nc(C)c(C(=O)N2CC3CN(CC[C@H](NC(=O)C4CCCC4)c4ccccc4)CC3C2)c(C)n1)c1ccccc1` (stereo partly drawn) [Compound I-16, (S)-(5-{-5-[(S)-3-(Cyclopentanecarbonyl-amino)-3-phenyl-propyl]-hexahydro-pyrrolo[3,4-c]pyrrole-2-carbonyl}-4,6-dimethyl-pyrimidin-2-yloxy)-phenyl-acetic acid methyl ester], the IC50 came to 1 nM.
In turn, `Cc1nc(Oc2ccc(C(=O)O)cc2)nc(C)c1C(=O)N1CC2CN(CC[C@H](NC(=O)C3CCCC3)c3ccccc3)CC2C1` (stereo partly drawn) [Compound I-8, 4-(5-{5-[(S)-3-(cyclopentanecarbonyl-amino)-3-phenyl-propyl]-hexahydro-pyrrolo[3,4-c]pyrrole-2-carbonyl}-4,6-dimethyl-pyrimidin-2-yloxy)-benzoic acid trifluoro-acetate salt] came in with an IC50 of 0.9 nM.
Turning to `Cc1nn(-c2ccc(C(F)(F)F)cn2)c(C)c1C(=O)N1CC2CN(CC[C@H](NC(=O)C3CCOC3)c3cccc(F)c3)CC2C1` (stereo partly drawn) [II-3, Tetrahydro-furan-3-carboxylic acid [(S)-3-{5-[3,5-dimethyl-1-(5-trifluoromethyl-pyridin-2-yl)-1H-pyrazole-4-carbonyl]-hexahydro-pyrrolo[3,4-c]pyrrol-2-yl}-1-(3-fluoro-phenyl)-propyl]-amide], the IC50 was < 0.3 nM.
Consider `Cc1nc(OCC(=O)OCc2ccccc2)nc(C)c1C(=O)N1CC2CN(CC[C@H](NC(=O)C3CCCC3)c3ccccc3)CC2C1` (stereo partly drawn) [Compound I-3, (5-{5-[(S)-3-(Cyclopentanecarbonyl-amino)-3-phenyl-propyl]-hexahydro-pyrrolo[3,4-c]pyrrole-2-carbonyl}-4,6-dimethyl-pyrimidin-2-yloxy)-acetic Acid Benzyl Ester], for which the IC50 came out at 0.5 nM.
`Cc1cc(=O)n(C)c(C)c1C(=O)N1CC2CN(CC[C@H](NC(=O)C3CCCC3)c3ccccc3)CC2C1` (stereo partly drawn) [III-13, Cyclopentanecarboxylic acid {(S)-1-phenyl-3-[-5-(1,2,4-trimethyl-6-oxo-1,6-dihydro-pyridine-3-carbonyl)-hexahydro-pyrrolo[3,4-c]pyrrol-2-yl]-propyl}-amide] gave an IC50 of 1.4 nM.
`Cc1nc(NS(C)(=O)=O)nc(C)c1C(=O)N1CC2CN(CC[C@H](NC(=O)C3CCCC3)c3ccccc3)CC2C1` (stereo partly drawn) [Compound I-42, Cyclopentanecarboxylic Acid {(S)-3-[5-(2-methanesulfonylamino-4,6-dimethyl-pyrimidine-5-carbonyl)-hexahydro-pyrrolo[3,4-c]pyrrol-2-yl]-1-phenyl-propyl}-amide]: the IC50 is < 0.3 nM.
Compound `Cc1cc(=O)n(C)c(C)c1C(=O)N1CC2CN(CC[C@H](NC(=O)C3CCC(F)(F)CC3)c3ccccc3)CC2C1` (stereo partly drawn) [III-15, 4,4-difluoro-cyclohexanecarboxylic acid {(S)-1-phenyl-3-[5-(1,2,4-trimethyl-6-oxo-1,6-dihydro-pyridine-3-carbonyl)-hexahydro-pyrrolo[3,4-c]pyrrol-2-yl]-propyl}-amide] displayed an IC50 of 1.1 nM. In other words, the single-digit nanomolar range.
Still for that read-out and setting: in the case of `Cc1nc(Oc2ccc(C(=O)OCc3ccccc3)cc2)nc(C)c1C(=O)N1CC2CN(CC[C@H](NC(=O)C3CCCC3)c3ccccc3)CC2C1` (stereo partly drawn) [Compound I-7, 4-(5-{5-[(S)-3-(Cyclopentanecarbonyl-amino)-3-phenyl-propyl]-hexahydro-pyrrolo[3,4-c]pyrrole-2-carbonyl}-4,6-dimethyl-pyrimidin-2-yloxy)-benzoic acid benzyl ester] it was < 0.3 nM.
Same read-out and setting: next, `COc1nc(C)c(C(=O)N2CC3CN(CC[C@H](NC(=O)C4CCCC4)c4ccccc4)CC3C2)c(C)n1` (stereo partly drawn) [Compound I-19, Cyclopentanecarboxylic Acid {(S)-3-[5-(2-methoxy-4,6-dimethyl-pyrimidine-5-carbonyl)-hexahydro-pyrrolo[3,4-c]pyrrol-2-yl]-1-phenyl-propyl}-amide]: 0.4 nM.
